# BindingDB's records for patent US9328099 (Merck Sharp & Dohme, 2016)
# Columns and labels:
# [1] = target: Tyrosine-protein kinase JAK2 (Homo sapiens, UniProt O60674); test: HTRF Biochemical Assay; conditions: 25 °C
# [2] = target: Tyrosine-protein kinase JAK1 (Homo sapiens, UniProt P23458); test: HTRF Biochemical Assay; conditions: 25 °C
# Chain of Tyrosine-protein kinase JAK1 (P23458 whole entry): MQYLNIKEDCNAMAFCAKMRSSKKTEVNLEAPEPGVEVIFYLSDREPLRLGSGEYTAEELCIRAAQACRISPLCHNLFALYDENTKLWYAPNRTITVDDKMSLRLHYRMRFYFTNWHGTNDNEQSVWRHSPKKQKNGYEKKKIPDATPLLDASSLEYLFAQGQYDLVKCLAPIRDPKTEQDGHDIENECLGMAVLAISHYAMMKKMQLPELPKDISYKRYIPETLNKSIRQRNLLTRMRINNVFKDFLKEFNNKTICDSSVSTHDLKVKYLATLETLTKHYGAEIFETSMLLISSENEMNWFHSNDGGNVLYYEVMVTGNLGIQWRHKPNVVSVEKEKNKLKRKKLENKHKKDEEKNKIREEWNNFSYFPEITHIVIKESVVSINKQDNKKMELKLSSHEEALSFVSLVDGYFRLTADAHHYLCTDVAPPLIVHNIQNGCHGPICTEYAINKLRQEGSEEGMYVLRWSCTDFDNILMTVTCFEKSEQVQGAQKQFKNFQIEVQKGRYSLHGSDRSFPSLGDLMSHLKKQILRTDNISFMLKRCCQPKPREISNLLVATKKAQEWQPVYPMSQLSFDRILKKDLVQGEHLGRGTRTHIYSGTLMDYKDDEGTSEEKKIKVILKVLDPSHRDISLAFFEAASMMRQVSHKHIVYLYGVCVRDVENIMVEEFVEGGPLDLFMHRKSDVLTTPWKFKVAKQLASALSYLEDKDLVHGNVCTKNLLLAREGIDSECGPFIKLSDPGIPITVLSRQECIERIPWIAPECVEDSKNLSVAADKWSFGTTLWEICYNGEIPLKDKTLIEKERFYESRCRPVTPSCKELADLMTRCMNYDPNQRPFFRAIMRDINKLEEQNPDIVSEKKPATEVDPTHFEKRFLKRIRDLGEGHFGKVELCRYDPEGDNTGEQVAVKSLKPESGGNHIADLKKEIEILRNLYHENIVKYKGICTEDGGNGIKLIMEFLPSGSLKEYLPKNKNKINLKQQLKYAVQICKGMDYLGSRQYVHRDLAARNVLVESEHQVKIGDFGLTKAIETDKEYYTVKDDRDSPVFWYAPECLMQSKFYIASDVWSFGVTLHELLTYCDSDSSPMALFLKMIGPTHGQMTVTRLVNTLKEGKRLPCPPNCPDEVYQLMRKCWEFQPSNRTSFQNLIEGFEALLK
# Chain of Tyrosine-protein kinase JAK2 (O60674 whole entry): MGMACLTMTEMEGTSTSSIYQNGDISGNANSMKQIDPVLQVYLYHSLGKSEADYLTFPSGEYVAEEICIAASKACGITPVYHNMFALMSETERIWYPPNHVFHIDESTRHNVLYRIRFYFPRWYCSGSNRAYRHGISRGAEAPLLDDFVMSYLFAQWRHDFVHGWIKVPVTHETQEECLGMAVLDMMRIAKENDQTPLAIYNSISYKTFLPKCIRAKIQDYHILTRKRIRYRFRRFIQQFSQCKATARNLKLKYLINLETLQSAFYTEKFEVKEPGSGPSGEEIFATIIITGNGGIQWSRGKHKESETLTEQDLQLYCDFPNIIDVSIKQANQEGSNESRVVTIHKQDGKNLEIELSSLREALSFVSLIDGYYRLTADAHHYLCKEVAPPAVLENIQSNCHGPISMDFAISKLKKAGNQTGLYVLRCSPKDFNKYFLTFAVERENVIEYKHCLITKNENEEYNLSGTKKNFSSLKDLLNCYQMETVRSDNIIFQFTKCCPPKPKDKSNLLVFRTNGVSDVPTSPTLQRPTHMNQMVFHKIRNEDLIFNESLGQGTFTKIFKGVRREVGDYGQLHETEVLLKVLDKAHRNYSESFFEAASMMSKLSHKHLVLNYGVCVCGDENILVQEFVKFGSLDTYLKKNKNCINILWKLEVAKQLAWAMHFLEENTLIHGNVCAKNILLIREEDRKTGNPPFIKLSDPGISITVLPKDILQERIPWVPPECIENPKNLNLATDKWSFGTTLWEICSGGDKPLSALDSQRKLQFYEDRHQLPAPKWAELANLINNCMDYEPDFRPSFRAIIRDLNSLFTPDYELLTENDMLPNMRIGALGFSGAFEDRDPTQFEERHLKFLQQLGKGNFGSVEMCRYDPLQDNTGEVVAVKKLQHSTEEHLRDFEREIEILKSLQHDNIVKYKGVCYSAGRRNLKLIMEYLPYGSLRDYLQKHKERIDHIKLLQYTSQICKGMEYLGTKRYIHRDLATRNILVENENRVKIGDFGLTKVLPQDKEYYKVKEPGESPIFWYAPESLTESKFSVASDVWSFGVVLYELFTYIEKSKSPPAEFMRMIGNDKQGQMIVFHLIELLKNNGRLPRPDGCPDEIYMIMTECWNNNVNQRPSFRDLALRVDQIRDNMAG
structure (smiles),measurement,setting,value
"Cc1cc(F)c(Nc2ccnc3c2C(=O)Nc2cc(CN4CC[C@@H](N)C4)ccc2N3)cc1O [US9328099, 29-A]",IC50,[1],40 nM
same,IC50,[2],1 nM
